How the values were obtained:
[1] = tested on: morning eyelid swelling; assay: Treatment of morning eyelid swelling (eyelid edema), eyelid volume by 3D scanner, treated eye vs untreated eye; assay type: in vivo, human; conditions: for reduction of morning eyelid swelling (result in words): topical to one eye, other eye untreated, 3D scanner
Description: In this study, the efficacy of naphazoline 0.1% ophthalmic solution was evaluated for treatment for eyelid edema. The eyelid volume for 11 subjects participating in the study was recorded in the afternoon of Day 1 and again upon arrival to the clinic the following morning (Day 2). […] The natural progression of morning eyelid swelling, as measured using 3D scanning technology is depicted in FIG. 10. The increase ranged from 14 mm^3 to 659 mm^3. Subjects were then dosed with naphazoline 0.1% (vasoconstrictor) in the right eye and eyelid volume was assessed at 5, 10, 15, 30, and 120 minutes following treatment using a 3-D scanner. […] A summary of all the patient data is depicted if FIG. 3L.
In a preliminary study with a similar design to that described above, NaCl 5% ophthalmic solution was evaluated as a potential treatment for eyelid edema. […] Eyelid swelling was assessed using a 3-D scanner at 5, 10, 15, 20, 30, and 120 minutes post-treatment. […] In one subject, this reduction was pronounced and was present through the 120 minute assessment time point. In the remaining three patients, treatment was not effective.
A total of 6 subjects (male, between the ages of 25 and 29) were evaluated. At the start of the study, five (5) baseline scans were performed per subject and eye using a 3D scanner. The next day, subjects were asked to five (5) scans of each eye, identical to Visit 1, were then taken.
Subjects received the 2 drops (40 μl each) of the combination treatment, with one minute apart each drop in one eye and no treatment in the other eye. Five (5) scans of each eye were taken, identical to Visit 1, 20 minutes after second drop instillation. Subjects were asked to grade their eyelid swelling post treatment. Digital photos were also taken at baseline and at 20 minutes post treatment.

[2] = tested on: morning eyelid swelling; assay: as above; assay type: in vivo, human; conditions: topical to one eye, other eye untreated

CNC[C@H](O)c1cccc(O)c1 [0.25% phenylephrine formulation, phenylephrine, reference compound]
reduction of morning eyelid swelling (result in words) [1]: did reduce morning eyelid swelling

[Cl-].[Na+] [NaCl 5% ophthalmic solution, sodium chloride]
patients in whom treatment was not effective ([1]; 6 subjects): three
mean change from baseline versus negative controls ([1]; FIG. 4G): numerically superior to negative controls, though the differences were not statistically significant
subjects with pronounced reduction in eyelid swelling ([1]; present through the 120 minute assessment time point, 6 subjects): one
patients with a reduction in eyelid swelling ([1]; through 15 minutes post-instillation, 6 subjects): Three
reduction of morning eyelid swelling (result in words) [1]: caused a reduction of eyelid swelling in several patients
reduction of morning eyelid swelling (result in words) [2]: some efficacy

c1ccc2c(CC3=NCCN3)cccc2c1 [naphazoline 0.1%, naphazoline, reference compound]
reduction of morning eyelid swelling (result in words) [1]: demonstrated efficacy
subjects with greater decrease in eyelid volume in treatment eye than non-treatment eye ([1]; up to the 30 minute timepoint): 9 out of 11
subjects with greater decrease in eyelid volume in treatment eye than non-treatment eye ([1]; up to the 120 minute timepoint): 7 out of 11
reduction of morning eyelid swelling (result in words) ([2]; listed as naphazoline 0.5% solution): caused a reduction of eyelid swelling in most subjects

OC[C@@H](O)[C@@H](O)[C@H](O)[C@H](O)CO [mannitol 12.5% solution, mannitol]
reduction of morning eyelid swelling (result in words) [1]: did reduce morning eyelid swelling
